Converted amounts (≈) assume the structure as drawn.
What was measured:
[1] = system: HeLa (cervix epithelioid carcinoma); experiment: Cell growth inhibition, MTT assay, HeLa; assay type: cell-based; settings: Homo sapiens
Experimental: (§1) The ability of the synthesized compounds to inhibit the cell proliferation of human cancer cell lines was assayed by measuring cell viability through the use of the MTT method 72 h after treatment. For this purpose, representative cell lines of the most frequent kinds of cancer were selected, including the following: HeLa (cervix epithelioid carcinoma), MCF7 (breast adenocarcinoma), U87 MG (glioblastoma), T98G (temozolomide resistant glioblastoma), HepG2 (hepatocellular carcinoma), HCT8 (colorectal carcinoma), and HT-29 (colon adenocarcinoma).
(§2) The cell lines were obtained from ATTC (Manassas, VA, USA). […] The cells were periodically tested for Mycoplasma infection by using a MycoAlert kit (Lonza, Norwest, Australia), and only Mycoplasma-free cells were used in the experiments.
(§3) Then, every compound was added (10 µL/well) to a final concentration of 10 µM. Untreated cells were used as negative controls. The antiproliferative activity of compounds was measured 72 h after drug exposure through the MTT assay. […] For this purpose, compounds were used at different concentrations, ranging from 10^−10 to 10^−2 M. Measurements were performed in triplicate, and each experiment was repeated three times. The IC50 values were determined using Origin software (version 9.6, OriginLab, Washington, DC, USA).

[2] = system: T98G (temozolomide resistant glioblastoma); experiment: Cell growth inhibition, MTT assay, T98G; assay type: cell-based; settings: Homo sapiens
Experimental: as §1, §2, §3

U87 MG (glioblastoma) = experiment: Cell growth inhibition, MTT assay, U87 MG; assay type: cell-based; settings: Homo sapiens, U-87 MG
Experimental: as §1, §2, §3

[3] = system: HCT8 (colorectal carcinoma); experiment: Cell growth inhibition, MTT assay, HCT8; assay type: cell-based; settings: Homo sapiens
Experimental: as §1, §2, §3

[4] = target: T1, microtubular protein isolated from calf brains (bovine brain tubulin) (Bos taurus, UniProt P81947+Q6B856); experiment: Tubulin polymerization inhibition (TPI); assay type: biochemical; settings: in vitro tubulin polymerization, mean ± SD
T1 construct: from tissue; host or cells: calf (bovine) brain
T1 sequence (Q6B856 whole entry): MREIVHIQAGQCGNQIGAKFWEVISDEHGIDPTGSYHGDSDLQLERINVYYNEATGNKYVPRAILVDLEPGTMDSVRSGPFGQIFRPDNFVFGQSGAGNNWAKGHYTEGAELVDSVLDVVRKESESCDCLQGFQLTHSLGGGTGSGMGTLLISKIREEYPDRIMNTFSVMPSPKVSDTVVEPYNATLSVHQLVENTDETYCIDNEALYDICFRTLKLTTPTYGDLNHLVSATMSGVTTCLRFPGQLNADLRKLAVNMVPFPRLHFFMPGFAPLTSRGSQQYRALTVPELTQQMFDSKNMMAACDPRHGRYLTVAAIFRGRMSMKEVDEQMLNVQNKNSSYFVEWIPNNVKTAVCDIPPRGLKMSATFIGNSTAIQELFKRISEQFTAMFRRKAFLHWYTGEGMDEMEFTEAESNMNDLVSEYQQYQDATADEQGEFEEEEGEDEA
T1 sequence (P81947 whole entry): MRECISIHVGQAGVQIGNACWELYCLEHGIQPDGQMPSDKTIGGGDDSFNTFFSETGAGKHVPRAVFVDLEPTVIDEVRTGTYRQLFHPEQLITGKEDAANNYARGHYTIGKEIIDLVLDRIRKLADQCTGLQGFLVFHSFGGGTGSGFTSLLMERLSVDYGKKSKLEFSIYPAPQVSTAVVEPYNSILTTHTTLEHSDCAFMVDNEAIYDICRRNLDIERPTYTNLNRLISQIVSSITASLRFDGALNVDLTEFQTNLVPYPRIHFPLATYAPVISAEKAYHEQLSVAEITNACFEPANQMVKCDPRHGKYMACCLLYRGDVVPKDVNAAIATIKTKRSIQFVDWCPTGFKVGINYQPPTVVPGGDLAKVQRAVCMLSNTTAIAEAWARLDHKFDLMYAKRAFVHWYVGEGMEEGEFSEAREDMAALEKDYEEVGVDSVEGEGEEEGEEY
Experimental: We evaluated the capacity of the new synthesized compounds to inhibit the polymerization of microtubular protein isolated from calf brains. The assays were performed by taking absorbance measurements to quantify the amount of polymer mass formed in the presence (or absence; negative controls) of the compounds.
Bovine brain tubulin was isolated as previously described by following a modified version of the Shelanski method. The protein was stored at −80 °C, and its concentration was determined by employing the Bradford method before each use. […] Tubulin polymerization, caused when heating the samples, was accompanied by an increase in the absorbance (at 450 nm) of the sample that was monitored by using a Helios α spectrophotometer. […] Measurements were performed in triplicate in two independent experiments using microtubular proteins from different preparations.

[5] = system: MCF7 (breast adenocarcinoma); experiment: Cell growth inhibition, MTT assay, MCF7; assay type: cell-based; settings: Homo sapiens
Experimental: as §1, §2, §3

[6] = Aqueous solubility, shake-flask method, phosphate buffer pH 7.4; assay type: physicochemical; settings: thermodynamic from solid, phosphate buffer pH 7.4, shake-flask, mean ± SD of three experiments
Experimental: The aqueous solubility of tetrazole derivatives was determined by the shaking flask methodology in phosphate buffer at pH 7.4, microfiltration, and quantification of the saturated solutions via UV spectroscopy. […] The introduction of polar groups on the 3-indole position was favorable since the most soluble compounds were the oximes 16–19 (38–53 µg/mL), followed by the carbaldehyde series 12–15 (33–45 µg/mL), and the carbonitrile derivatives (25–40 µg/mL), whereas the unsubstituted indoles 8–11 were the least soluble series (19–35 µg/mL).
The aqueous solubility of the compounds was determined using the saturation shake-flask method. First, calibration lines at the maximum wavelength of absorbance were determined for each compound. Then, 5 mg of each compound was suspended in 500 µL of pH 7.4 buffer, and the resulting mixture was shaken for 72 h at room temperature and filtrated over a […] filter to remove the insoluble fraction. The concentration of the compound in the supernatant (saturated solution) was determined by measuring UV absorbance at the maximum wavelength of absorbance and interpolation in the calibration line. A Helios Alfa Spectrophotometer was used for the UV measurements. The aqueous solubility values are given as the average of three independent experiments.

[7] = system: HEK-293 (embryonic kidney); experiment: Cell growth inhibition, MTT assay, non-tumor HEK-293; assay type: cell-based; settings: Homo sapiens
Experimental: The ability of the synthesized compounds to inhibit the cell proliferation of human cancer cell lines was assayed by measuring cell viability through the use of the MTT method 72 h after treatment. For this purpose, representative cell lines of the most frequent kinds of cancer were selected, including the following: HeLa (cervix epithelioid carcinoma), MCF7 (breast adenocarcinoma), U87 MG (glioblastoma), T98G (temozolomide resistant glioblastoma), HepG2 (hepatocellular carcinoma), HCT8 (colorectal carcinoma), and HT-29 (colon adenocarcinoma). […] The compounds were also tested against the non-tumor HEK-293 cells to study their selectivity toward cancer cells. […] The cell lines were obtained from ATTC (Manassas, VA, USA). […] The cells were periodically tested for Mycoplasma infection by using a MycoAlert kit (Lonza, Norwest, Australia), and only Mycoplasma-free cells were used in the experiments. […] Louis, MO, USA), which was dissolved in PBS at 5 mg/mL in accordance with the manufacturer's instructions. […] Untreated cells were used as negative controls. The antiproliferative activity of compounds was measured 72 h after drug exposure through the MTT assay. […] For this purpose, compounds were used at different concentrations, ranging from 10^-10 to 10^-2 M. Measurements were performed in triplicate, and each experiment was repeated three times. The IC50 values were determined using Origin software (version 9.6, OriginLab, Washington, DC, USA).

[8] = system: HepG2 (hepatocellular carcinoma); experiment: Cell growth inhibition, MTT assay, HepG2; assay type: cell-based; settings: Homo sapiens
Experimental: as §1, §2, §3

[9] = system: HT-29 (colon adenocarcinoma); experiment: Cell growth inhibition, MTT assay, HT-29, without or with verapamil; assay type: cell-based, human
Experimental: as §1
Multidrug resistance (MDR) proteins, especially P-glycoprotein (P-gp), are often involved in resistance mechanisms affecting tubulin-binding drugs that are frequently related to the failure of cancer therapies. […] These pumps are also part of the blood–brain barrier.
as §2, §3

[10] = HCT-8, 72 h after drug exposure
[11] = HEK293, 72 h, non-tumorigenic cell line
[12] = HEK293, heading: IC50 HEK-293, mean ± SD, Table S1, non-tumorigenic cell line
[13] = Homo sapiens, HT-29, 72 h after drug exposure
[14] = Homo sapiens, HT-29, mean ± SD, Table S1
[15] = mean ± SD, Table S1, in the presence of verapamil (10 µM)

Row | Structure (SMILES) | IC50 ([1]; 72 h after drug exposure) [nM] | IC50 ([1]; mean ± SD, Table S1) [nM] | IC50 ([2]; 72 h, 72 h after drug exposure) [nM] | IC50 ([2]; mean ± SD, Table S1) [nM] | IC50 (U87 MG (glioblastoma); 72 h after drug exposure) [nM] | IC50 (U87 MG (glioblastoma); mean ± SD, Table S1) [nM] | IC50 [3, 10] [nM] | IC50 ([3]; HCT-8, mean ± SD, Table S1) [nM] | IC50 [4] [nM] | IC50 ([5]; 72 h after drug exposure) [nM] | solubility at 72 h [6] [µg/mL] | IC50 [7, 11] [nM] | IC50 [7, 12] [nM] | IC50 ([8]; 72 h after drug exposure) [nM] | IC50 ([8]; mean ± SD, Table S1) [nM] | IC50 [9, 13] [nM] | IC50 [9, 14] [nM] | IC50 [9, 15] [nM] | IC50 ([5]; mean ± SD, Table S1) [nM] | other results
1 | CSc1cc(-c2nnnn2-c2ccc3c(c2)c(C#N)cn3C)cc(Cl)n1 [Compound 22, 5-(5-(2-chloro-6-(methylsulfanyl)pyridin-4-yl)-1H-tetrazol-1-yl)-1-methyl-1H-indole-3-carbonitrile] | 341 | 341.2 ± 2.8 | 359 | 359 ± 3.9 | 312 | 312.3 ± 2.6 | 335 | 335.3 ± 3.3 | 4600 ± 200 | 329 | 31.2 ± 0.3 (≈ 81.7 µM) | > 10000 | > 10000 | 327 | 327.3 ± 2.8 | 355 | 355 ± 3.9 | 357 ± 3.9 |  | 
2 | Cn1cc(C=NO)c2cc(-n3nnnc3-c3cc(Cl)nc(Cl)c3)ccc21 [Compound 16, 5-(5-(2,6-dichloropyridin-4-yl)-1H-tetrazol-1-yl)-1-methyl-1H-indole-3-carbaldehyde oxime] | 207 | 207.1 ± 2 | 127 | 127.3 ± 0.9 | 131 | 131.3 ± 1.1 | 219 | 219.1 ± 1.5 | 3700 ± 200 | 210 | 38.2 ± 0.4 (≈ 98.4 µM) | 7010 |  | 220 | 220 ± 2.3 | 211 | 211.1 ± 2 |  | 210.1 ± 1.9 | 
3 | Cn1ccc2cc(-n3nnnc3-c3cc(Cl)nc(Cl)c3)ccc21 [Compound 8, 5-(5-(2,6-dichloropyridin-4-yl)-1H-tetrazol-1-yl)-1-methyl-1H-indole] | 45 | 45.1 ± 0.3 | 41 |  | 32 | 32.4 ± 0.2 | 49 | 49.4 ± 0.3 | 2800 ± 100 | 43 | 19.3 ± 0.1 (≈ 55.9 µM) | 4720 |  | 49 | 49.1 ± 0.5 |  | 52.3 ± 0.4 | 52.4 ± 0.2 | 43.2 ± 0.4 | 
4 | CSc1cc(-c2nnnn2-c2ccc3c(c2)c(C=NO)cn3C)cc(Cl)n1 [Compound 18, 5-(5-(2-chloro-6-(methylsulfanyl)pyridin-4-yl)-1H-tetrazol-1-yl)-1-methyl-1H-indole-3-carbaldehyde oxime] | 131 |  | 102 | 102 ± 1.1 | 93 | 93.4 ± 1 | 115 | 115 ± 1.3 | 3300 ± 100 | 123 | 42.7 ± 0.5 (≈ 107 µM) | 6130 |  | 127 |  | 152 | 152.3 ± 1.4 | 150 ± 1.6 | 123 ± 1.7 | 
5 | COc1ccc(S(=O)(=O)Nc2cccnc2Nc2ccc(O)cc2)cc1 [ABT-751, reference compound] | 388 | 388 ± 3.9 |  |  |  | 375 ± 5.4 | 209 | 209.1 ± 2 |  | 180 | 40 ± 0.3 (≈ 108 µM) |  |  |  | 327.1 ± 1.1 | 213 | 213.5 ± 2.1 | 250 ± 2.9 | 180 ± 2.8 | 
6 | COc1ccc(/C=C\c2cc(OC)c(OC)c(OC)c2)cc1O [CA-4, combretastatin A4, reference compound] | 2 |  | 17 | 17.1 ± 0.2 | 10 | 10.1 ± 0.1 | 220 | 220.4 ± 2 |  | 1 | 1.1 ± 0.1 (≈ 3.48 µM) | 721 |  | 13 | 13.4 ± 0.2 | 305 | 305.4 ± 2.5 | 327.5 ± 2.2 | 1.4 ± 0.1 | 
7 | Cn1cc(C#N)c2cc(-n3nnnc3-c3cc(Cl)nc(Cl)c3)ccc21 [Compound 20, 5-(5-(2,6-dichloropyridin-4-yl)-1H-tetrazol-1-yl)-1-methyl-1H-indole-3-carbonitrile] | 625 | 625.4 ± 4.2 | 555 | 555.4 ± 4.2 | 522 | 522.1 ± 3.1 | 628 |  | 6200 ± 300 | 631 | 25.3 ± 0.1 (≈ 68.3 µM) | > 10000 | > 10000 | 634 | 634.5 ± 5.6 | 679 | 679.4 ± 4 | 682.3 ± 6.3 | 631.4 ± 4.9 | 
8 | CSc1cc(-c2nnnn2-c2ccc3c(c2)c(C=NO)cn3C)cc(SC)n1 [Compound 19, 5-(5-(2,6-bis(methylsulfanyl)pyridin-4-yl)-1H-tetrazol-1-yl)-1-methyl-1H-indole-3-carbaldehyde oxime] | 307 | 307.1 ± 2.8 | 294 | 294 ± 3 | 275 | 275 ± 2.8 | 333 | 333.2 ± 2.7 | 4300 ± 200 | 339 | 47.8 ± 0.6 (≈ 116 µM) | 8310 |  | 341 | 341.4 ± 3.3 | 355 | 355.5 ± 2.3 | 359 ± 4.1 | 339.5 ± 2.4 | 
9 | Cn1nnc2c(C(N)=O)ncn2c1=O [TMZ, temozolomide, reference compound] | > 10000 |  |  |  |  |  | > 10000 |  |  | > 10000 |  | > 10000 | > 10000 | > 10000 |  |  | > 10 |  |  | IC50 ([1]; heading: IC50 HeLa, mean ± SD, Table S1): > 10000 nM; IC50 (U87 MG (glioblastoma); 72 h, 72 h after drug exposure): > 100000 nM; IC50 ([3]; HCT-8, heading: IC50 HCT8, mean ± SD, Table S1): > 10000 nM; IC50 ([5]; heading: IC50 MCF7, mean ± SD, Table S1): > 10000 nM; IC50 ([8]; heading: IC50 HepG2, mean ± SD, Table S1): > 10000 nM
